Results: BindingDB's records for doi:10.1016/j.bmc.2015.10.018 (Aristotle University of Thessaloniki, 2015)

Columns and labels:
Carbonic anhydrase 1 [1] = target: T1, Carbonic anhydrase 1 (Homo sapiens, UniProt P00915); experiment: ChEBML_1523540; settings: 25 °C
Experimental: Inhibition of human recombinant carbonic anhydrase 1 preincubated for 15 mins at room temperature/6 hrs at 4 deg C by stopped-flow CO2 hydration assay

Carbonic anhydrase 2 [2] = target: T2, Carbonic anhydrase 2 (Homo sapiens, UniProt P00918); experiment: (§1) Inhibition of human recombinant carbonic anhydrase 2 preincubated for 15 mins at room temperature/6 hrs at 4 deg C by stopped-flow CO2 hydration assay; settings: 25 °C
Carbonic anhydrase 1 [3] = target: T1, Carbonic anhydrase 1; experiment: Inhibition of human recombinant carbonic anhydrase 1
Carbonic anhydrase 12 [4] = target: T3, Carbonic anhydrase 12 (Homo sapiens, UniProt O43570); experiment: ChEBML_1523544; settings: 25 °C
T3 sequence (O43570 whole entry): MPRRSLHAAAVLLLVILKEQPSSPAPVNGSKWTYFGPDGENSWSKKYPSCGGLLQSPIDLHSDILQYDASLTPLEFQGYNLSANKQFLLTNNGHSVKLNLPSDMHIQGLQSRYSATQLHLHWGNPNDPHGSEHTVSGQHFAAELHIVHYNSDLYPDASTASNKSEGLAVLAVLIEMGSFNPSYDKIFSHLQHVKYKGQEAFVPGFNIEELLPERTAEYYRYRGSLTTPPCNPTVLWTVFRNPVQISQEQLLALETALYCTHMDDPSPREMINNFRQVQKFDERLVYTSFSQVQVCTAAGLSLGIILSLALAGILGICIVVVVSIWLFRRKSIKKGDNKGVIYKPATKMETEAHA
Experimental: (§2) Inhibition of human recombinant carbonic anhydrase 12 preincubated for 15 mins at room temperature/6 hrs at 4 deg C by stopped-flow CO2 hydration assay

Carbonic anhydrase 12 [5] = target: T3, Carbonic anhydrase 12; experiment: as §2; settings: 25 °C
Carbonic anhydrase 2 [6] = target: T2, Carbonic anhydrase 2; experiment: ChEBML_1523541; settings: 25 °C
Experimental: as §1

T1 sequence (P00915 whole entry): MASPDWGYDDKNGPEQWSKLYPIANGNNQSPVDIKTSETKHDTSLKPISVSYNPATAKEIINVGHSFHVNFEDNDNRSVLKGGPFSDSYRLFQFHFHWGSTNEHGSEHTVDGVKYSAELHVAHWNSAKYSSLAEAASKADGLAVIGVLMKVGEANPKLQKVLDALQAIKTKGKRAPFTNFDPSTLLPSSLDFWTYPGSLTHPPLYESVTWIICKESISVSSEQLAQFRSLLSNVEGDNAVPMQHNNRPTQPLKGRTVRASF

- Ki (Carbonic anhydrase 1 [1]): > 10 µM
- Ki (Carbonic anhydrase 2 [2]): 6.21 µM
- Ki (Carbonic anhydrase 1 [3]): > 10 µM
- Ki (Carbonic anhydrase 12 [4]): 0.0521 µM
- Ki (Carbonic anhydrase 12 [5]): 0.052 µM
- Ki (Carbonic anhydrase 2 [6]): 6.21 µM
SMILES: O=c1cc(O)cc2oc(-c3ccc(O)c(O)c3)c(O[C@@H]3O[C@H](CO)[C@@H](O)[C@H](O)[C@H]3O)c(O)c1-2 [Quercetin 3-O-beta-D-glucoside]
